“Also recorded” adds a separate entry of the source.
Columns and labels:
pancreatic cancer cells = details: in vitro culture cells such as pancreatic cancer cells or cancer-bearing mice; cited from earlier work
glucose transporter GLUT = details: cited from earlier work
cultured cells = details: 2-TRLG and 2-NBDLG applied together to cultured cells; cited from earlier work
[1] = test system: ascites cells obtained during an operation of a patient with endometrial cancer; assay: Live-cell fluorescence imaging of ascites cells, endometrial cancer patient, reactive mesothelial cells (Example 3); type: cell-based, human; details: cell population in region of interest, apparent reactive mesothelial cells on Papanicolaou staining; 100 μM 2-NBDLG and 20 μM 2TRLG; FIG. 5A
Method: Immediately after the start of laparotomy for endometrial cancer, the peritoneal cavity was washed with physiological saline in the same manner as in Example 1 to obtain a peritoneal washing, which was then added to a 50 mL centrifuge tube having 5 mL of the Hanks solution in advance. The resulting ascitic fluid suspension was centrifuged at 1500 G for 2 minutes at room temperature, and then the supernatant was removed with a dropper. Some of the resulting pellet was set aside for cytodiagnosis tests at the hospital's pathology department, and the rest was dispersed into 15 mL of a KRB solution in a 15 mL centrifuge tube, then again centrifuged at 1500 G for 2 minutes at room temperature, and the supernatant was removed with a dropper. The pellet primarily includes red blood cells, and a large amount of red blood cells may obscure the target cells, interfering with microscopy. […]
An ×2 fLG solution prepared as in Example 1 (2-1) in an amount of 1 mL was added and mixed, and the cells was exposed to fLG for 5 minutes in a 37° C. water bath. […] Bright field image: high sensitivity, transmitted illumination intensity 25, aperture stop 20%, exposure time 1/500 s • Green fluorescence image: high sensitivity, excitation light intensity 100%, exposure time 1/4 s • Red fluorescence image: high sensitivity, excitation light intensity 10%, exposure time 1/10 s • (Experiment Results)

[2] = test system: ascites cells obtained during an operation of a patient with ovarian cancer (serous adenocarcinoma); assay: Live-cell fluorescence imaging by the perfusion method, original ascites cells, ovarian cancer patient (Example 4); type: cell-based, human; details: cancer cell cluster; perfusion 100 μM 2-NBDLG and 20 μM 2-TRLG for 5 minutes, imaged 10 minutes after switch to KRB; FIG. 7A/7B, 8D
Method: A surplus portion of the original ascitic fluid taken from the peritoneal cavity immediately after the start of laparotomy for ovarian cancer (serous adenocarcinoma) was added to a 50 mL centrifuge tube having 5 mL of the Hanks solution in advance. The obtained ascitic fluid suspension was checked for presence of fibrin with a toothpick, and then passed through a mesh to remove fat and impurities. Next, it was evenly dispensed into two 50 mL centrifuge tubes, and centrifuged at 1500 G for 2 minutes at room temperature. The supernatant of each of the two centrifuge tubes was then gently removed from the liquid surface down to 7.5 mL with an electric pipette, and then the rest was further removed with a dropper to leave 1 mL. The sedimented layer containing red blood cells and the like were present at the bottom of the centrifuge tube. A 1 mL portion was collected from the upper surface with a dropper without aspirating red blood cells from the sedimented layer to obtain an ascites cell suspension. • (2) Adhesion of Ascites Cells on Glass Plate by Centrifugation, and Method of Maintaining Cell Viability
The ascites cells were allowed to attach on a glass plate using a commercially available automated cell collecting system CF-12D (Sakura Finetek Japan Co., Ltd.). […]

## O=C[C@@H](Nc1ccc([N+](=O)[O-])c2nonc12)[C@H](O)[C@@H](O)[C@@H](O)CO [2-NBDLG, 2-[N-(7-nitrobenz-2-oxa-1,3-diazole-4-yl)amino]-2-deoxy-L-glucose]
Pancreatic cancer cells
  uptake into cancer cells: specific uptake
Glucose transporter GLUT
  binding to glucose transporter GLUT: does not bind
Cultured cells
  uptake into cells having damaged plasma membranes or showing nonspecific uptake such as phagocytosis: taken up into cells having damaged plasma membranes
[1]
  fluorescence from 2-NBDLG (green wavelength region): shows fluorescence
[2]
  fluorescence from 2-NBDLG (green wavelength region), after vs before application of fLG: shows fluorescence; also recorded: positive

— patent publication US20170315129A1, “CANCER CELL DETECTION METHOD USING LIVING BODY-DERIVED CELLS OF BIOLOGICAL ORIGIN” (Hirosaki University, priority 2014, published 2017)
